Measured values as given in patent US10245261B2, “Substituted indol-5-ol derivatives and their therapeutic applications” (NantBioScience, Inc., priority 2013, dated 2019).
Where two headings read alike, the source gives them in different places. Values belong to the compound of their own block, whether it stands above or below them.

How the values were obtained:
[1] = tested on: NCI 60 cancer cell line panel; test: NCI-60 DTP Human Tumor Cell Line Panel, SRB growth inhibition; assay type: cell-based; settings: for GI50: Homo sapiens
Description: The human tumor cell lines of the cancer screening panel are grown in RPMI 1640 medium containing 5% fetal bovine serum and 2 mM L-glutamine. For a typical screening experiment, cells are inoculated into 96 well microtiter plates in 100 μL at plating densities ranging from 5,000 to 40,000 cells/well depending on the doubling time of individual cell lines. After cell inoculation, the microtiter plates are incubated at 37° C., 5% CO2, 95% air and 100% relative humidity for 24 h prior to addition of experimental drugs.
After 24 h, two plates of each cell line are fixed in situ with TCA, to represent a measurement of the cell population for each cell line at the time of drug addition (Tz). Experimental drugs are solubilized in dimethyl sulfoxide at 400-fold the desired final maximum test concentration and stored frozen prior to use. At the time of drug addition, an aliquot of frozen concentrate is thawed and diluted to twice the desired final maximum test concentration with complete medium containing 50 μg/ml gentamicin. Additional four, 10-fold or ½ log serial dilutions are made to provide a total of five drug concentrations plus control. Aliquots of 100 μl of these different drug dilutions are added to the appropriate microtiter wells already containing 100 μl of medium, resulting in the required final drug concentrations.
Following drug addition, the plates are incubated for an additional 48 h at 37° C., 5% CO2, 95% air, and 100% relative humidity. For adherent cells, the assay is terminated by the addition of cold TCA. Cells are fixed in situ by the gentle addition of 50 μl of cold 50% (w/v) TCA (final concentration, 10% TCA) and incubated for 60 minutes at 4° C. The supernatant is discarded, and the plates are washed five times with tap water and air dried. Sulforhodamine B (SRB) solution (100 μl) at 0.4% (w/v) in 1% acetic acid is added to each well, and plates are incubated for 10 minutes at room temperature. After staining, unbound dye is removed by washing five times with 1% acetic acid and the plates are air dried. Bound stain is subsequently solubilized with 10 mM trizma base, and the absorbance is read on an automated plate reader at a wavelength of 515 nm. For suspension cells, the methodology is the same except that the assay is terminated by fixing settled cells at the bottom of the wells by gently adding 50 μl of 80% TCA (final concentration, 16% TCA). Using the seven absorbance measurements [time zero, (Tz), control growth, (C), and test growth in the presence of drug at the five concentration levels (Ti)], the percentage growth is calculated at each of the drug concentrations levels. Percentage growth inhibition is calculated as: [(Ti−Tz)/(C−Tz)]×100 for concentrations for which Ti>/=Tz [(Ti−Tz)/Tz]×100 for concentrations for which Ti<Tz.
Three dose response parameters are calculated for each experimental agent.

Lck(h) = Lck(h) (Homo sapiens, UniProt P06239); test: KinaseProfiler kinase assay; assay type: biochemical
Sequence of Lck(h) (P06239 whole entry): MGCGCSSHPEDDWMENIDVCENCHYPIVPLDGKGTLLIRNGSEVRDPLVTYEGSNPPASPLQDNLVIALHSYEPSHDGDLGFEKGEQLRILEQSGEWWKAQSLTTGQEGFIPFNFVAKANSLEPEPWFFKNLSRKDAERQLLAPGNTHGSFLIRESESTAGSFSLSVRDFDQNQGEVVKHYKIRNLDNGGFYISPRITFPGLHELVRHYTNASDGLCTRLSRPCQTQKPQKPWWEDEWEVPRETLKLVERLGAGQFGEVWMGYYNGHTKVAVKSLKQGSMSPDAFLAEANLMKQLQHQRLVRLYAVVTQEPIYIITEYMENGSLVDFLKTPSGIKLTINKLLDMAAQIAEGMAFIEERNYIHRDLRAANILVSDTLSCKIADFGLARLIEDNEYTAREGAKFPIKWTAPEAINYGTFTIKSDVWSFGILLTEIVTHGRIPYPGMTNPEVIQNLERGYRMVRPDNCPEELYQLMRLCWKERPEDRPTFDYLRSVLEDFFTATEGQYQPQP

mTOR(h) = mTOR(h) (Homo sapiens, UniProt P42345); test: KinaseProfiler kinase assay; assay type: biochemical
Fgr(h) = Fgr(h) (Homo sapiens, UniProt P09769); test: KinaseProfiler kinase assay; assay type: biochemical
GSK3α(h) = GSK3α(h) (Homo sapiens, UniProt P49840); test: KinaseProfiler kinase assay; assay type: biochemical
JNK2α2(h) = JNK2α2(h) (Homo sapiens, UniProt P45984); test: KinaseProfiler kinase assay; assay type: biochemical
Sequence of JNK2α2(h) (P45984 whole entry): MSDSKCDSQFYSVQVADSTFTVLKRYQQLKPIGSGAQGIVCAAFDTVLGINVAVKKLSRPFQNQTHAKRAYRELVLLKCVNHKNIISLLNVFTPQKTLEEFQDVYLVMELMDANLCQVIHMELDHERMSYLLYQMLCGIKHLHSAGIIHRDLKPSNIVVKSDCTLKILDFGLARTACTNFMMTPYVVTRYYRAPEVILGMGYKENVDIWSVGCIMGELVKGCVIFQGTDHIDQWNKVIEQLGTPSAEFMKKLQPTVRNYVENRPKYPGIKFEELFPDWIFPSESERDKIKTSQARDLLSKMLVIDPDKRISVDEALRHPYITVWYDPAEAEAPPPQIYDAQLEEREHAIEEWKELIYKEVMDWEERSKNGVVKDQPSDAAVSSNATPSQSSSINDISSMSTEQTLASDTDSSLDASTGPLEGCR

DRAK1(h) = DRAK1(h) (Homo sapiens, UniProt Q9UEE5); test: KinaseProfiler kinase assay; assay type: biochemical
[2] = target: PI3 Kinase (p110β/p85α)(h) (Homo sapiens, UniProt P42338); test: KinaseProfiler kinase assay; assay type: biochemical
CDK5/p25(h) = CDK5/p25(h) (Homo sapiens, UniProt Q00535); test: KinaseProfiler kinase assay; assay type: biochemical
Sequence of CDK5/p25(h) (Q00535 whole entry): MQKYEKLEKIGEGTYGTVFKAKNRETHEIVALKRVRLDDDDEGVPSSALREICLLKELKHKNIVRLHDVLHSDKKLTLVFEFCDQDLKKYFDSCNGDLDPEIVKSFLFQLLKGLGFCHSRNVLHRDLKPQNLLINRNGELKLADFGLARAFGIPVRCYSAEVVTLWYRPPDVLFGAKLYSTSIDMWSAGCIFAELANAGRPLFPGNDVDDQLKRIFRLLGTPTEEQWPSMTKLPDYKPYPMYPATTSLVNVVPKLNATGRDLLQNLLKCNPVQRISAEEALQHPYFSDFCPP
Sequence of CDK5/p25(h) (Q15078 99-307 partner): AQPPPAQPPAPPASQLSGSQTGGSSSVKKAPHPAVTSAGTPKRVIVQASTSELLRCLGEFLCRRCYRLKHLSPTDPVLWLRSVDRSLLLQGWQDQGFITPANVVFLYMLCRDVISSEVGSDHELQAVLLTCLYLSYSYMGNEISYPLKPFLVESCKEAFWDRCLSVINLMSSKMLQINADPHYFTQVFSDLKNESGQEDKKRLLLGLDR

CK1(y) = test: KinaseProfiler kinase assay; assay type: biochemical, yeast
GCK(h) = GCK(h) (Homo sapiens, UniProt Q12851); test: KinaseProfiler kinase assay; assay type: biochemical
Sequence of GCK(h) (Q12851 whole entry): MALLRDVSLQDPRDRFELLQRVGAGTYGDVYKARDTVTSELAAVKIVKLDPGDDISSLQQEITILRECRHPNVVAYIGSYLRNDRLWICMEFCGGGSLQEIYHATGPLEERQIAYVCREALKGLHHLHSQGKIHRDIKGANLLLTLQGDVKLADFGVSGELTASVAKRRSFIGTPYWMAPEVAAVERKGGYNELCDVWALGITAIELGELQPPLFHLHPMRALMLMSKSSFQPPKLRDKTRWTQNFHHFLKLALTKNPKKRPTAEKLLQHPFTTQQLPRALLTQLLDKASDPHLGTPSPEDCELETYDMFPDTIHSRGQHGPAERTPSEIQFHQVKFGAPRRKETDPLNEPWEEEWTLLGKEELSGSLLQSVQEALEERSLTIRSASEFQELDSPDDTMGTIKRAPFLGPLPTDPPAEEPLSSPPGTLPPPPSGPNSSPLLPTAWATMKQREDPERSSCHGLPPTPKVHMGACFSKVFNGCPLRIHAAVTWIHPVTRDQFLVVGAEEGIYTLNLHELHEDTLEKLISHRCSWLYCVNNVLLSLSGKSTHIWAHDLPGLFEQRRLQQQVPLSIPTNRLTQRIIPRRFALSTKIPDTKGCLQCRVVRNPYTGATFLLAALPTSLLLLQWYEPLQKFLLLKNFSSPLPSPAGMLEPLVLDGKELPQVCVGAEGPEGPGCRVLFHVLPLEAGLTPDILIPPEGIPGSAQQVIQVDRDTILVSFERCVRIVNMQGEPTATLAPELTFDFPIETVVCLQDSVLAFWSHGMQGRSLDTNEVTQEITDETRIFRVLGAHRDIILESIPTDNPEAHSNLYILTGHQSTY

PIP5K1γ(h) = PIP5K1γ(h) (Homo sapiens, UniProt O60331); test: KinaseProfiler kinase assay; assay type: biochemical
CLK2(h) = CLK2(h) (Homo sapiens, UniProt P49760); test: KinaseProfiler kinase assay; assay type: biochemical
Sequence of CLK2(h) (P49760 whole entry): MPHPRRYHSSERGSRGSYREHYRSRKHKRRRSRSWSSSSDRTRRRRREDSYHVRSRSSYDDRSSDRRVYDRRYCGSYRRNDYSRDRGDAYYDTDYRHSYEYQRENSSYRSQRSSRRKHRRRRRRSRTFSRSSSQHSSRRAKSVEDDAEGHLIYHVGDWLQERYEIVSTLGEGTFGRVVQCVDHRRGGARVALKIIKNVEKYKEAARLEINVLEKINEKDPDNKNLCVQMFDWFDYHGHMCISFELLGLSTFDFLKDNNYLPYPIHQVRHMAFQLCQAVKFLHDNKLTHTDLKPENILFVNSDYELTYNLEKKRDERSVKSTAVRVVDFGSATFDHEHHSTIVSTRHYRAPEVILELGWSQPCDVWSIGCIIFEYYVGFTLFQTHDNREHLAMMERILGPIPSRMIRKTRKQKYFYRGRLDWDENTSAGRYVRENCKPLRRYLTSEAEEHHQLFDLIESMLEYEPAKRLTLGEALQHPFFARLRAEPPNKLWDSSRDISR

[3] = target: PI3 Kinase (p110α(H1047R)/p85α)(h) (Homo sapiens, UniProt P42336, H1047R); test: KinaseProfiler kinase assay; assay type: biochemical
BRK(h) = BRK(h) (Homo sapiens, UniProt Q13882); test: KinaseProfiler kinase assay; assay type: biochemical
CK1γ1(h) = CK1γ1(h) (Homo sapiens, UniProt Q9HCP0); test: KinaseProfiler kinase assay; assay type: biochemical
Sequence of CK1γ1(h) (Q9HCP0 whole entry): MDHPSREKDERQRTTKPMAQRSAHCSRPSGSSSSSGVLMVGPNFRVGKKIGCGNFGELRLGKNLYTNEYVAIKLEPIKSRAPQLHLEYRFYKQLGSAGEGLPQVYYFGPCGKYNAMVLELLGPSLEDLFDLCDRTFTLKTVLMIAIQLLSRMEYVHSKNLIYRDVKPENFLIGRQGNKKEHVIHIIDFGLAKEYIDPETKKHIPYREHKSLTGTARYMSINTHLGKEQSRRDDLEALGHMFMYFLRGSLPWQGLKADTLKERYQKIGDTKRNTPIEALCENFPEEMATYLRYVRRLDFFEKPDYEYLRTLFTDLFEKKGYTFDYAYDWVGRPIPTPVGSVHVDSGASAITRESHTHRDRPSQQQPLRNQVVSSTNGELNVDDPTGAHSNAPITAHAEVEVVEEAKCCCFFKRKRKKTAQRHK

CHK2(R145W)(h) = CHK2(R145W)(h) (Homo sapiens, UniProt O96017, R145W); test: KinaseProfiler kinase assay; assay type: biochemical
PI3KC2α(h) = PI3KC2α(h) (Homo sapiens, UniProt O00443); test: KinaseProfiler kinase assay; assay type: biochemical
Sequence of PI3KC2α(h) (O00443 whole entry): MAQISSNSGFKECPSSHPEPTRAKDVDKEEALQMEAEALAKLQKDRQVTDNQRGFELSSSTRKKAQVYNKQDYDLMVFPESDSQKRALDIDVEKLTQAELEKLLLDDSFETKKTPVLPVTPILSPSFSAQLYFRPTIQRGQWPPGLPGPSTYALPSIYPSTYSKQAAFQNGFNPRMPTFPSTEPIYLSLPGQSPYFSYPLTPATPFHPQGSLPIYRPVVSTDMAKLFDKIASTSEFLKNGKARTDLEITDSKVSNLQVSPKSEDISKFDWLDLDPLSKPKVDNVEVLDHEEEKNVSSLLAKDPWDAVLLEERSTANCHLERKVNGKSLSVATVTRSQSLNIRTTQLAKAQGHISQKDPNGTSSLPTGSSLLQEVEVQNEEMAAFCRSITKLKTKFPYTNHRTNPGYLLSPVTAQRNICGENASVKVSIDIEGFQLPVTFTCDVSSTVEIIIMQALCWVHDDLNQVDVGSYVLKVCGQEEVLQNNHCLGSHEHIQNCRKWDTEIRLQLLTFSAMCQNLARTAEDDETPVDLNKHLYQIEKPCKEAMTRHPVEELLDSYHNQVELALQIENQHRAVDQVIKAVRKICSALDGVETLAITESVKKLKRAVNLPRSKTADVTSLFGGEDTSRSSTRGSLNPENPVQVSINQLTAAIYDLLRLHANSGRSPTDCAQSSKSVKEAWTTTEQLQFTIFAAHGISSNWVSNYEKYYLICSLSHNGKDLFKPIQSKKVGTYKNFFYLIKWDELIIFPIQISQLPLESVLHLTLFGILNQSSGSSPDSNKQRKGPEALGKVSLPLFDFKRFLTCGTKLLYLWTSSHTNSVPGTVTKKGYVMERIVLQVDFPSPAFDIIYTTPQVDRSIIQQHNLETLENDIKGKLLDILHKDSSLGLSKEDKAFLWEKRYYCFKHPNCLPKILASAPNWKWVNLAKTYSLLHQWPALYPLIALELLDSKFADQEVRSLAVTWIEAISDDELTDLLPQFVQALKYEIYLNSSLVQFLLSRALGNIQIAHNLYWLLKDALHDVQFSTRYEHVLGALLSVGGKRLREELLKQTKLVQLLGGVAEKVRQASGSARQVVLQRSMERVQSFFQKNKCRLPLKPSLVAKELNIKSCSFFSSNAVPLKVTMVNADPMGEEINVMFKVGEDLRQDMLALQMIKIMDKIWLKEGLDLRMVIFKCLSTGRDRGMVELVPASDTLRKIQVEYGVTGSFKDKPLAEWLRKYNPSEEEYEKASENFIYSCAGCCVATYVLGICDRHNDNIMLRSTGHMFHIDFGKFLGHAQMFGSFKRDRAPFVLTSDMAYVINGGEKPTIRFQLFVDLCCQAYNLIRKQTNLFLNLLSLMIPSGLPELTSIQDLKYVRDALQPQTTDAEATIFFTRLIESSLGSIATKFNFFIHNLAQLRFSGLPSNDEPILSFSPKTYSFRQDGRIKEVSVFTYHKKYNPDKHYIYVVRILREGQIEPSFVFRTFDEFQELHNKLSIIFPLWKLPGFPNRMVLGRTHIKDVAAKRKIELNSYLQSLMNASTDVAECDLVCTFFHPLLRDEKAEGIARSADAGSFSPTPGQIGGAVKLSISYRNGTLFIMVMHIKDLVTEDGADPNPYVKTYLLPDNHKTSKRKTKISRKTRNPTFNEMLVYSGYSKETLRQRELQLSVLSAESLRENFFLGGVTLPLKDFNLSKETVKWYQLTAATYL

PI3 Kinase (p120γ)(h) = PI3 Kinase (p120γ)(h) (Homo sapiens, UniProt P48736); test: KinaseProfiler kinase assay; assay type: biochemical

SMILES: C/C=C/c1cc(Nc2cc(N3CCN(C)CC3)nc(Oc3ccc4[nH]c(C)cc4c3F)n2)n[nH]1 [Compound 53]
- GI50 ([1]; 60 cell, range over the NCI 60 cell lines (Table 6), read-out: growth inhibition (GI50)): 10 to 1890 nM
- GI50 ([1]; 786-0, Renal Cancer, 786-0, read-out: GI50): 97.2 nM
- GI50 ([1]; A498, Renal Cancer, A498, read-out: GI50): < 10 nM
- GI50 ([1]; A549, Non-Small Cell Lung Cancer, A549/ATCC, read-out: GI50): 388 nM
- GI50 ([1]; ACHN, Renal Cancer, ACHN, read-out: GI50): 190 nM
- GI50 ([1]; BT-549, Breast Cancer, BT-549, read-out: GI50): 268 nM
- GI50 ([1]; CAKI-1, Renal Cancer, CAKI-1, read-out: GI50): 901 nM
- GI50 ([1]; CCRF-CEM, Leukemia, CCRF-CEM, read-out: GI50): < 10 nM
- GI50 ([1]; COLO 205, Colon Cancer, COLO 205, read-out: GI50): 85.9 nM
- GI50 ([1]; DU-145, Prostate Cancer, DU-145, read-out: GI50): 288 nM
- GI50 ([1]; HCC 2998, Colon Cancer, HCC-2998, read-out: GI50): 1420 nM
- GI50 ([1]; HCT-15, Colon Cancer, HCT-15, read-out: GI50): 397 nM
- GI50 ([1]; HCT-116, Colon Cancer, HCT-116, read-out: GI50): 40.1 nM
- GI50 ([1]; HL-60, Leukemia, HL-60(TB), read-out: GI50): 1430 nM
- GI50 ([1]; HOP-62, Non-Small Cell Lung Cancer, HOP-62, read-out: GI50): 91.4 nM
- GI50 ([1]; HOP-92, Non-Small Cell Lung Cancer, HOP-92, read-out: GI50): 22.4 nM
- GI50 ([1]; HT-29, Colon Cancer, HT29, read-out: GI50): 96.3 nM
- GI50 ([1]; Hs-578T, Breast Cancer, HS 578T, read-out: GI50): 13 nM
- GI50 ([1]; IGROV-1, Ovarian Cancer, IGROV1, read-out: GI50): 47.2 nM
- GI50 ([1]; K562, Leukemia, K-562, read-out: GI50): < 10 nM
- GI50 ([1]; KM12, Colon Cancer, KM12, read-out: GI50): < 10 nM
- GI50 ([1]; LOX IMVI, Melanoma, LOX IMVI, read-out: GI50): 34.3 nM
- GI50 ([1]; MCF7, Breast Cancer, MCF7, read-out: GI50): < 10 nM
- GI50 ([1]; MDA-MB-231, Breast Cancer, MDA-MB-231/ATCC, read-out: GI50): 227 nM
- GI50 ([1]; MDA-MB-435, Melanoma, MDA-MB-435, read-out: GI50): 354 nM
- GI50 ([1]; MDA-MB-468, Breast Cancer, MDA-MB-468, read-out: GI50): 39.2 nM
- GI50 ([1]; MOLT-4, Leukemia, MOLT-4, read-out: GI50): 48.1 nM
- GI50 ([1]; Malme-3M, Melanoma, MALME-3M, read-out: GI50): 132 nM
- GI50 ([1]; Melanoma, M14, read-out: GI50): 166 nM
- GI50 ([1]; NCI-H23, Non-Small Cell Lung Cancer, NCI-H23, read-out: GI50): 153 nM
- GI50 ([1]; NCI-H226, Non-Small Cell Lung Cancer, NCI-H226, read-out: GI50): < 10 nM
- GI50 ([1]; NCI-H322M, Non-Small Cell Lung Cancer, NCI-H322M, read-out: GI50): 915 nM
- GI50 ([1]; NCI-H460, Non-Small Cell Lung Cancer, NCI-H460, read-out: GI50): 86.9 nM
- GI50 ([1]; NCI-H522, Non-Small Cell Lung Cancer, NCI-H522, read-out: GI50): 72.2 nM
- GI50 ([1]; NCI/ADR-RES, Ovarian Cancer, NCI/ADR-RES, read-out: GI50): 1540 nM
- GI50 ([1]; OVCAR-3, Ovarian Cancer, OVCAR-3, read-out: GI50): 1070 nM
- GI50 ([1]; OVCAR-4, Ovarian Cancer, OVCAR-4, read-out: GI50): 1550 nM
- GI50 ([1]; OVCAR-5, Ovarian Cancer, OVCAR-5, read-out: GI50): 171 nM
- GI50 ([1]; OVCAR-8, Ovarian Cancer, OVCAR-8, read-out: GI50): 187 nM
- GI50 ([1]; Prostate Cancer, PC-3, read-out: GI50): 1270 nM
- GI50 ([1]; RPMI-8226, Leukemia, RPMI-8226, read-out: GI50): 1890 nM
- GI50 ([1]; RXF 393, Renal Cancer, RXF 393, read-out: GI50): 18.4 nM
- GI50 ([1]; SF530, CNS Cancer, SF-530, read-out: GI50): 65.8 nM
- GI50 ([1]; SF-268, CNS Cancer, SF-268, read-out: GI50): 87.7 nM
- GI50 ([1]; SF-295, CNS Cancer, SF-295, read-out: GI50): 91 nM
- GI50 ([1]; SK-MEL-2, Melanoma, SK-MEL-2, read-out: GI50): 1420 nM
- GI50 ([1]; SK-MEL-5, Melanoma, SK-MEL-5, read-out: GI50): 1270 nM
- GI50 ([1]; SK-MEL-28, Melanoma, SK-MEL-28, read-out: GI50): 342 nM
- GI50 ([1]; SK-OV-3, Ovarian Cancer, SK-OV-3, read-out: GI50): 421 nM
- GI50 ([1]; SN12C, Renal Cancer, SN12C, read-out: GI50): 48.7 nM
- GI50 ([1]; SNB-19, CNS Cancer, SNB-19, read-out: GI50): 205 nM
- GI50 ([1]; SNB-75, CNS Cancer, SNB-75, read-out: GI50): 15.8 nM
- GI50 ([1]; SW-620, Colon Cancer, SW-620, read-out: GI50): 44.1 nM
- GI50 ([1]; T47D, Breast Cancer, T-47D, read-out: GI50): 1030 nM
- GI50 ([1]; U-251, CNS Cancer, U251, read-out: GI50): 103 nM
- GI50 ([1]; UACC-62, Melanoma, UACC-62, read-out: GI50): 502 nM
- GI50 ([1]; UACC-257, Melanoma, UACC-257, read-out: GI50): 388 nM
- GI50 ([1]; UO-31, Renal Cancer, UO-31, read-out: GI50): 81 nM

SMILES: Cc1cc2c(F)c(Oc3nc(Nc4cc(C5CC5)[nH]n4)cc(N4CCN(C)CC4)n3)ccc2[nH]1 [Compound 10]
- inhibition at 0.1 µM (Lck(h)): 99%
- inhibition at 0.1 µM (mTOR(h)): 25%
- inhibition at 0.1 µM (Fgr(h)): 97%
- inhibition at 0.1 µM (GSK3α(h)): 28%
- inhibition at 0.1 µM (JNK2α2(h)): -20%
- inhibition at 0.1 µM (DRAK1(h)): 36%
- inhibition at 0.1 µM [2]: 0%
- inhibition at 0.1 µM (CDK5/p25(h)): 24%
- % inhibition @ 0.1 μM (CK1(y)): 17%
- inhibition at 0.1 µM (GCK(h)): 79%
- inhibition at 0.1 µM (PIP5K1γ(h)): -8%
- inhibition at 0.1 µM (CLK2(h)): 29%
- inhibition at 0.1 µM [3]: -8%
- inhibition at 0.1 µM (BRK(h)): 54%
- inhibition at 0.1 µM (CK1γ1(h)): -4%
- inhibition at 0.1 µM (CHK2(R145W)(h)): 22%
- inhibition at 0.1 µM (PI3KC2α(h)): 15%
- inhibition at 0.1 µM (PI3 Kinase (p120γ)(h)): -2%

- inhibition at 0.1 µM (Lck(h)): 98%
- inhibition at 0.1 µM (mTOR(h)): 18%
- inhibition at 0.1 µM (Fgr(h)): 100%
- inhibition at 0.1 µM (GSK3α(h)): 20%
- inhibition at 0.1 µM (JNK2α2(h)): -16%
- inhibition at 0.1 µM (DRAK1(h)): 42%
- inhibition at 0.1 µM [2]: -1%
- inhibition at 0.1 µM (CDK5/p25(h)): 26%
- % inhibition @ 0.1 μM (CK1(y)): 4%
- inhibition at 0.1 µM (GCK(h)): 85%
- inhibition at 0.1 µM (PIP5K1γ(h)): -5%
- inhibition at 0.1 µM (CLK2(h)): -3%
- inhibition at 0.1 µM [3]: -1%
- inhibition at 0.1 µM (BRK(h)): 73%
- inhibition at 0.1 µM (CK1γ1(h)): -10%
- inhibition at 0.1 µM (CHK2(R145W)(h)): 6%
- inhibition at 0.1 µM (PI3KC2α(h)): -5%
- inhibition at 0.1 µM (PI3 Kinase (p120γ)(h)): -1%
SMILES: Cc1cc2c(F)c(Oc3nc(Nc4cc(C5CC5)[nH]n4)cc(N4CCNCC4)n3)ccc2[nH]1 [Compound 11, N-(5-cyclopropyl-1H-pyrazol-3-yl)-2-((4-fluoro-2-methyl-1H-indol-5-yl)oxy)-6-(piperazin-1-yl)pyrimidin-4-amine]

SMILES: C/C=C/c1cc(Nc2cc(N3CCN(C)CC3)nc(Oc3cc(F)c4[nH]c(C)cc4c3F)n2)n[nH]1 [NTW-3456]
- antiproliferative activity ([1]; cell lines from the NCI 60 panel): Anti-proliferative activity
